Results: patent US20160303127A1, “COMBINATION THERAPY WITH C-MET AND EGFR ANTAGONISTS” (Genentech, Inc., priority 2008, published 2016)
Several values for one entry are separate records, joined by “and”; a condition that tells them apart may be missing. Equal values may be shown once. Entries after “also recorded” stand apart in the source; their conditions may differ.

B1: MetMAb: Anti-c-met monovalent monoclonal antibody MetMAb (rhuOA5D5v2) (WO2007/063816) (antibody, chains of the INN, looked up, V domains shown)
VH: EVQLVESGGGLVQPGGSLRLSCAASGYTFTSYWLHWVRQAPGKGLEWVGMIDPSNSDTRFNPNFKDRFTISADTSKNTAYLQMNSLRAEDTAVYYCATYRSYVTPLDYWGQGTLVTVSS
VL: DIQMTQSPSSLSASVGDRVTITCKSSQSLLYTSSQKNYLAWYQQKPGKAPKLLIYWASTRESGVPSRFSGSGSGTDFTLTISSLQPEDFATYYCQQYYAYPWTFGQGTKVEIK
modifications: one-armed

Experiments:
NCI-H596 cells = test: NCI-H596 cell viability assay (Celltiter-Glo) with TGFα +/- HGF; type: cell-based, human
Protocol: Cells: NCI-H596 cells were obtained from the American Type Culture Collection (ATCC) and were maintained in RPMI 1640 supplemented with 10% fetal bovine serum (FBS; Sigma, St. Louis, Mo.), and 2 mM L-glutamine. Cell assay media was changed as described below depending upon the experiment.
Therapeutics and Growth factors: Erlotinib and MetMAb were from Genentech, Inc., as described above. HGF and TGFα were generated at Genentech.
Cell Viability Assays: For cell viability assays, cells were plated in quadruplicate at 1×10^3 cells per well in 384-well plates in RPMI containing 0.5% FBS (assay medium) overnight, prior to stimulation with assay medium containing 3 nM TGF-a+/−HGF. Erlotinib was added at multiple concentrations and 72 hours later, cell viability was measured using the Celltiter-Glo Luminescent Cell Viability Assay (Promega, Madison, Wis.).
To determine whether activation of the c-met pathway could change the response of NCI-N596 cells to erlotinib, cells were stimulated with TGFα, treated with erlotinib and/or HGF, then cell viability was assayed.

ERK-1/2 = test: phospho-ERK-1/2 in NCI-H596 hu-HGF-Tg-SCID xenograft tumors (immunoblot); type: in vivo, human; settings: MetMAb 30 mg/kg 24 h, erlotinib 150 mg/kg 6 h prior to harvest, average of 5 animals
Protocol: (§1) Tumors were allowed to grow to 200-300 mm^3 prior to treatment. Dosing was performed as described in Table 8. Briefly, MetMAb (30 mg/kg) or MetMAb buffer was dosed at time zero hours (0 hr) and methylcellulose tween vehicle (MCT) or erlotinib (150 mg/kg) was dosed at time 18 hours (18 hr). Mice were euthanized and tumors and plasma collected at time 24 hours (24 hr). Tumors were snap frozen in liquid nitrogen and then kept at −70° C. until they were processed for immunoprecipitation and immunoblotting.
Immunoprecipitations and Immunoblotting: To process tumors for protein analysis, tumors were first homogenized using a glass dounce with lysis buffer (Cell Signaling Technology, Inc., Danvers, Mass.), supplemented with 1 mM PMSF, additional protease inhibitor cocktail, and phosphatase inhibitor cocktail I and II (Sigma, Inc., St. Louis, Mo.). Lysates were incubated on ice for one hour and then centrifuged at 14,000×g for five minutes and supernatants collected. Protein concentrations were determined using the BCA™ Protein Assay Kit (Pierce, Inc., Rockford, Ill.) and samples were immunoblotted. […] Samples were then analyzed by SDS-PAGE and immunoblotting. […] Immunoblots were imaged and phospho-protein levels were quantified and normalized to total protein levels (e.g. pEGFR over total EGFR) using an Odyssey imager (LI-COR Biosciences, Lincoln, Nebr.). […]

c-met = target: T1, c-met (Homo sapiens, UniProt P08581, DEL964-1010); test: c-met phosphorylation in NCI-H596 hu-HGF-Tg-SCID xenograft tumors (IP/immunoblot); type: in vivo, mouse xenograft; settings: MetMAb 30 mg/kg 24 h, erlotinib 150 mg/kg 6 h prior to harvest, average of 5 animals
T1 construct: endogenous in cells; host or cells: NCI-H596 (human NSCLC) cells grown as xenograft tumours in hu-HGF-Tg-SCID mice; tumour lysate, IP and immunoblot
Protocol: as §1
Immunoprecipitations and Immunoblotting: To process tumors for protein analysis, tumors were first homogenized using a glass dounce with lysis buffer (Cell Signaling Technology, Inc., Danvers, Mass.), supplemented with 1 mM PMSF, additional protease inhibitor cocktail, and phosphatase inhibitor cocktail I and II (Sigma, Inc., St. Louis, Mo.). Lysates were incubated on ice for one hour and then centrifuged at 14,000×g for five minutes and supernatants collected. Protein concentrations were determined using the BCA™ Protein Assay Kit (Pierce, Inc., Rockford, Ill.) and samples were immunoblotted. […] For direct Western blots, 50 μg of tumor lysate was loaded per lane. Samples were then analyzed by SDS-PAGE and immunoblotting. […] Goat-anti-mouse-IRdye800 (Rockland Immunochemicals, Inc., Gilbertsville, Pa.) and goat-anti-rabbit-AlexaFluor680 (Molecular Probes, Inc., Eugene, Oreg.) were used as secondary antibodies. Immunoblots were imaged and phospho-protein levels were quantified and normalized to total protein levels (e.g. pEGFR over total EGFR) using an Odyssey imager (LI-COR Biosciences, Lincoln, Nebr.).
Twenty hu-HGF-Tg-SCID mice were inoculated with NCI-H596 cells and tumors established, as previously described. Once tumors reached sizes between 200-300 mm^3, mice were evenly grouped into four groups based upon tumor volume and dosing was begun (Table 8). MetMAb was dosed 24 hours prior to tumor harvest whereas erlotinib was dosed 6 hours prior to harvest. Dosing times were selected based on the relative half-life of each therapeutic agent. […]

Molecule	sensitivity (response) of cells to erlotinib in the presence of HGF (NCI-H596 cells; TGFα plus HGF 0.5 to 50 ng/ml, 72 hours)	cell viability when grown in the presence of erlotinib and TGFα (NCI-H596 cells; TGFα, no HGF)	pERK1/2/total ERK1/2 (ERK-1/2; listed as Erlotinib)	pMet/total Met (c-met phosphorylation) (c-met)	pMet/total Met (c-met phosphorylation) (c-met; listed as Erlotinib)	effect of MetMAb on erlotinib sensitivity (cell viability) (NCI-H596 cells; TGFα and HGF (50 ng/ml), MetMAb 1 μM, varying erlotinib)	pERK1/2/total ERK1/2 (ERK-1/2)
C#Cc1cccc(Nc2ncnc3cc(OCCOC)c(OCCOC)cc23)c1 [erlotinib, N-(3-ethynylphenyl)-6,7-bis(2-methoxyethoxy)-4-quinazolinamine]	Reduction in relative response; also recorded: dramatically reduced in a dose-dependent manner; also recorded: attenuated response	reduced cell viability	39% (+/−8.9%) % of vehicle control and 39 (±8.9) % of vehicle control	did not reduce c-met phosphorylation	157 (±103.4) % of vehicle control	–	–
B1	–	–	–	12% (+/−3.6%) % of vehicle control and 12 (±3.5) % of vehicle control	–	dramatically restored erlotinib sensitivity	72% (+/−40.3%) % of vehicle control and 72 (±40.3) % of vehicle control
